For 47 compounds, EC50 results are on record in US10034886B2, “GLP-1 receptor modulators” (Celgene International II SÀRL, priority 2014, dated 2018).

Structures are written as SMILES. Where only a bound is given, the exact number is not on record here.

For the test, the target named is T1, GLP-1R (Homo sapiens, UniProt P43220).
T1 construct: host or cells: GLP-1R CRE-bla CHO-K1 cells
T1 sequence (P43220 24-463): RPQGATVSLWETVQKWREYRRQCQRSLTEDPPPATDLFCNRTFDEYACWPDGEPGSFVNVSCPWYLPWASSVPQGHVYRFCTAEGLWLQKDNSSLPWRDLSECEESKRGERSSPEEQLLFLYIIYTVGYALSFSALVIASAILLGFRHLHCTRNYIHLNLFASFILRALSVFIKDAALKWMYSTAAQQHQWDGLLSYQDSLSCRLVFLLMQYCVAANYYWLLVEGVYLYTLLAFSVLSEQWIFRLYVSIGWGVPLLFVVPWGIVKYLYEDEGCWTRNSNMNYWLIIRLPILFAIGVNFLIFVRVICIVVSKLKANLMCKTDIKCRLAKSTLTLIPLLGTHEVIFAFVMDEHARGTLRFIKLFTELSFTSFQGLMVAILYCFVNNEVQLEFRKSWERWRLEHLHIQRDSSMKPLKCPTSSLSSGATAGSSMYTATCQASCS
T1 sequence (P01275 100-127 partner limits assumed): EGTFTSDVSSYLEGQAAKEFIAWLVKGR
As to the kind of experiment: EC20 GLP-1(9-36) PAM cAMP assay: dose response of compound in the presence of fixed concentration of GLP-1(9-36). The test is classed as cell-based. The following applies: dose response of compound in presence of fixed concentration of GLP-1(9-36), GLP-1R CRE-bla CHO-K1 cells, read-out: EC20 GLP-1(9-36) PAM EC50. The essentials:
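Positive allosteric modulation read as cAMP accumulation: compound titrations (12 points) combined with an EC20 level of GLP-1(9-36) on CHO-K1 GLP-1R CRE-bla cells, IBMX present, 30 min, 37 °C, pH 7.4 buffer. Luminescence converted to cAMP via standards; non-linear fit gave EC50 and Emax.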
(Changes in cAMP serve as a functional read-out for many G protein-coupled receptors.)
Regarding `CCCCCCCOc1ccc(-c2cnc(-c3ccc(C[C@H](NC(=O)c4ccc(C(C)(C)C)cc4)C(=O)NC(Cc4ccc(Cl)cc4)C(=O)O)cc3)nc2)cc1` (some centres unmarked) [Compound 564], the EC50 was in the range of 800 to 2500 nM.

For `CCCCCCCOc1ccc(-c2cnc(-c3ccc(C[C@H](NC(=O)c4ccc(C(C)(C)C)cc4)C(=O)N4CCC4C(=O)O)cc3)nc2)cc1` (some centres unmarked) [Compound 565], the concentration for a half-maximal effect (EC50) lay within 800 to 2500 nM.

For the compound `CCCCCCCOc1ccc(-c2cnc(-c3ccc(C[C@H](NC(=O)c4ccc(C(C)(C)C)cc4)C(=O)NC(C(=O)O)c4cccc(OC)c4)cc3)nc2)cc1` (some centres unmarked) [Compound 566], the EC50 is below 800 nM.

Take `CCCCCCCOc1ccc(-c2cnc(-c3ccc(C[C@H](NC(=O)c4ccc(C(C)(C)C)cc4)C(=O)N4C[C@H](O)C[C@H]4C(=O)O)cc3)nc2)cc1` [Compound 567]: the EC50 was below 800 nM.

`CCCCCCCOc1ccc(-c2cnc(-c3ccc(C[C@H](NC(=O)c4ccc(C(C)(C)C)cc4)C(=O)NC(Cc4ccc(OC)cc4)C(=O)O)cc3)nc2)cc1` (some centres unmarked) [Compound 568]: the EC50 was below 800 nM.

For the compound `CCCCCCCOc1ccc(-c2cnc(-c3ccc(C[C@H](NC(=O)c4ccc(C(C)(C)C)cc4)C(=O)NC(C(=O)O)C(O)c4ccccc4)cc3)nc2)cc1` (some centres unmarked) [Compound 569], the concentration for a half-maximal effect (EC50) was below 800 nM.

As for `CCCCCCCOc1ccc(-c2cnc(-c3ccc(C[C@H](NC(=O)c4ccc(C(C)(C)C)cc4)C(=O)NC(C(=O)O)C(O)c4ccccc4)cc3)nc2)cc1` (some centres unmarked) [Compound 570], the concentration giving a half-maximal response (EC50) is below 800 nM.

As for `CCCCCCCOc1ccc(-c2cnc(-c3ccc(C[C@H](NC(=O)c4ccc(C(C)(C)C)cc4)C(=O)NC(CC(=O)O)c4cccnc4)cc3)nc2)cc1` (some centres unmarked) [Compound 571], the half-maximal effective concentration (EC50) lay in the range of 800 to 2500 nM.

As for `CCCCCCCOc1ccc(-c2cnc(-c3ccc(C[C@H](NC(=O)c4ccc(C(C)(C)C)cc4)C(=O)NCc4ccc(C(=O)O)o4)cc3)nc2)cc1` [Compound 572], the half-maximal effective concentration (EC50) fell in the range of 800 to 2500 nM.

On to `CCCCCCCOc1ccc(-c2cnc(-c3ccc(C[C@H](NC(=O)c4ccc(C(C)(C)C)cc4)C(=O)NC(CCCC(=O)O)C(=O)O)cc3)nc2)cc1` (some centres unmarked) [Compound 573], for which the concentration giving a half-maximal response (EC50) lay in the range of 800 to 2500 nM.

`CCCCCCCOc1ccc(-c2cnc(-c3ccc(C[C@H](NC(=O)c4ccc(C(C)(C)C)cc4)C(=O)NC(C(=O)O)C(C)c4ccccc4)cc3)nc2)cc1` (some centres unmarked) [Compound 574]: the EC50 was in the range of 800 to 2500 nM.

For `CCCCCCCOc1ccc(-c2cnc(-c3ccc(C[C@H](NC(=O)c4ccc(C(C)(C)C)cc4)C(=O)N[C@H](CCCNC(=O)OCc4ccccc4)C(=O)O)cc3)nc2)cc1` [Compound 575], the concentration giving a half-maximal response (EC50) is 2500 to 5000 nM.

For the compound `CCCCCCCOc1ccc(-c2cnc(-c3ccc(C[C@H](NC(=O)c4ccc(C(C)(C)C)cc4)C(=O)N[C@@H](Cc4cnn(C)c4)C(=O)O)cc3)nc2)cc1` [Compound 576], the concentration giving a half-maximal response (EC50) is 800 to 2500 nM.

Consider `CCCCCCCOc1ccc(-c2cnc(-c3ccc(C[C@H](NC(=O)c4ccc(C(C)(C)C)cc4)C(=O)N[C@@H](CC4CCCNC4)C(=O)O)cc3)nc2)cc1` (some centres unmarked) [Compound 577], for which the concentration for a half-maximal effect (EC50) lay in the range of 2500 to 5000 nM.

As to `CCCCCCCOc1ccc(-c2cnc(-c3ccc(C[C@H](NC(=O)c4ccc(C(C)(C)C)cc4)C(=O)N4CCC(C(=O)O)CC4)cc3)nc2)cc1` [Compound 578], the EC50 fell in the range of 2500 to 5000 nM.

Consider `CCCCCCCOc1ccc(-c2cnc(-c3ccc(C[C@H](NC(=O)c4ccc(C(C)(C)C)cc4)C(=O)N[C@@H](CC(=O)O)C(N)=O)cc3)nc2)cc1` [Compound 579], for which the EC50 was below 800 nM.

With `CCCCCCCOc1ccc(-c2cnc(-c3ccc(C[C@H](NC(=O)c4ccc(C(C)(C)C)cc4)C(=O)N[C@@H](CC(=O)O)C(=O)NC)cc3)nc2)cc1` [Compound 580], the EC50 is below 800 nM.

As to `CCCCCCCOc1ccc(-c2cnc(-c3ccc(C[C@H](NC(=O)c4ccc(C(C)(C)C)cc4)C(=O)NC(CC(=O)O)c4ccccc4O)cc3)nc2)cc1` (some centres unmarked) [Compound 581], the 50% effective concentration (EC50) was 800 to 2500 nM.

As for `CCCCCCCOc1ccc(-c2cnc(-c3ccc(C[C@H](NC(=O)c4ccc(C(C)(C)C)cc4)C(=O)N4CC[C@H](N)[C@@H](C(=O)O)C4)cc3)nc2)cc1` [Compound 582], the half-maximal effective concentration (EC50) was in the range of 800 to 2500 nM.

As to `CCCCCCCOc1ccc(-c2cnc(-c3ccc(C[C@H](NC(=O)c4ccc(C(C)(C)C)cc4)C(=O)N4CCC[C@@H](C(=O)O)[C@H]4C)cc3)nc2)cc1` [Compound 583], the EC50 lay in the range of 5000 to 10000 nM.

With `CCCCCCCOc1ccc(-c2cnc(-c3ccc(C[C@H](NC(=O)c4ccc(C(C)(C)C)cc4)C(=O)NC(Cc4c[nH]c5ncccc45)C(=O)O)cc3)nc2)cc1` (some centres unmarked) [Compound 584], the 50% effective concentration (EC50) is 800 to 2500 nM.

Turning to `CCCCCCCOc1ccc(-c2cnc(-c3ccc(C[C@H](NC(=O)c4ccc(C(C)(C)C)cc4)C(=O)N4C[C@H](O)C[C@@H]4C(=O)O)cc3)nc2)cc1` [Compound 585], the EC50 was in the range of 800 to 2500 nM.

For the compound `CCCCCCCOc1ccc(-c2cnc(-c3ccc(C[C@H](NC(=O)c4ccc(C(C)(C)C)cc4)C(=O)N4C[C@@H](O)C[C@@H]4C(=O)O)cc3)nc2)cc1` [Compound 586], the concentration for a half-maximal effect (EC50) was below 800 nM.

As to `CCCCCCCOc1ccc(-c2cnc(-c3ccc(C[C@H](NC(=O)c4ccc(C(C)(C)C)cc4)C(=O)N4C[C@@H](O)C[C@H]4C(=O)O)cc3)nc2)cc1` [Compound 587], the EC50 is below 800 nM.

As to `CCCCCCCOc1ccc(-c2cnc(-c3ccc(C[C@H](NC(=O)c4ccc(C(C)(C)C)cc4)C(=O)N4CC[C@@H](C(=O)O)C4)cc3)nc2)cc1` [Compound 588], the EC50 was in the range of 800 to 2500 nM.

Turning to `CCCCCCCOc1ccc(-c2cnc(-c3ccc(C[C@H](NC(=O)c4ccc(C(C)(C)C)cc4)C(=O)N[C@H](CC(=O)O)C(=O)NC)cc3)nc2)cc1` [Compound 589], the concentration giving a half-maximal response (EC50) is 800 to 2500 nM.

For `CCCCCCCOc1ccc(-c2cnc(-c3ccc(C[C@H](NC(=O)c4ccc(C(C)(C)C)cc4)C(=O)N4CC(C(=O)O)C4)cc3)nc2)cc1` [Compound 590, (S)-1-(2-(4-(tert-butyl)benzamido)-3-(4-(5-(4-(heptyloxy)phenyl)pyrimidin-2-yl)phenyl)propanoyl)azetidine-3-carboxylic acid], the 50% effective concentration (EC50) is below 800 nM.

In the case of `CCCCCCCOc1ccc(-c2cnc(-c3ccc(C[C@H](NC(=O)c4ccc(C(C)(C)C)cc4)C(=O)N[C@H](CC(=O)NC)C(=O)O)cc3)nc2)cc1` [Compound 591], the half-maximal effective concentration (EC50) was below 800 nM.

Consider `CCCCCCCOc1ccc(-c2cnc(-c3ccc(C[C@H](NC(=O)c4ccc(C(C)(C)C)s4)C(=O)NC(Cc4nccs4)C(=O)O)cc3)nc2)cc1` (some centres unmarked) [Compound 592], for which the EC50 was in the range of 800 to 2500 nM.

As to `CCCCCCCOc1ccc(-c2cnc(-c3ccc(C[C@H](NC(=O)c4ccc(C(C)(C)C)s4)C(=O)N[C@@H](Cc4cn(C)cn4)C(=O)O)cc3)nc2)cc1` [Compound 593], the half-maximal effective concentration (EC50) is below 800 nM.

On to `CCCCCCCOc1ccc(-c2cnc(-c3ccc(C[C@H](NC(=O)c4ccc(C(C)(C)C)s4)C(=O)N[C@@H](Cn4cccn4)C(=O)O)cc3)nc2)cc1` [Compound 594], for which the concentration giving a half-maximal response (EC50) is below 800 nM.

As to `CCCCCCCOc1ccc(-c2cnc(-c3ccc(C[C@H](NC(=O)c4ccc(C(C)(C)C)s4)C(=O)NC(COC)C(=O)O)cc3)nc2)cc1` (some centres unmarked) [Compound 595], the EC50 is below 800 nM.

As to `CCCCCCCOc1ccc(-c2cnc(-c3ccc(C[C@H](NC(=O)c4ccc(C(C)(C)C)s4)C(=O)NC(C(=O)O)c4ccccc4C(F)(F)F)cc3)nc2)cc1` (some centres unmarked) [Compound 596], the EC50 was in the range of 800 to 2500 nM.

For the compound `CCCCCCCOc1ccc(-c2cnc(-c3ccc(C[C@H](NC(=O)c4ccc(C(C)(C)C)s4)C(=O)NC(CCS(C)(=O)=O)C(=O)O)cc3)nc2)cc1` (some centres unmarked) [Compound 597], the EC50 was below 800 nM.

`CCCCCCCOc1ccc(-c2cnc(-c3ccc(C[C@H](NC(=O)c4ccc(C(C)(C)C)s4)C(=O)NC(C(=O)O)c4c(C)n[nH]c4C)cc3)nc2)cc1` (some centres unmarked) [Compound 598]: the concentration giving a half-maximal response (EC50) is below 800 nM.

As to `CCCCCCCOc1ccc(-c2cnc(-c3ccc(C[C@H](NC(=O)c4ccc(C(C)(C)C)s4)C(=O)N4CCC4C(=O)O)cc3)nc2)cc1` (some centres unmarked) [Compound 599], the concentration for a half-maximal effect (EC50) is below 800 nM.

For the compound `CCCCCCCOc1ccc(-c2cnc(-c3ccc(C[C@H](NC(=O)c4ccc(C(C)(C)C)s4)C(=O)NC(C(=O)O)c4cccs4)cc3)nc2)cc1` (some centres unmarked) [Compound 600], the half-maximal effective concentration (EC50) was below 800 nM.

On to `CCCCCCCOc1ccc(-c2cnc(-c3ccc(C[C@H](NC(=O)c4ccc(C(C)(C)C)s4)C(=O)N[C@@H](Cc4ccc(O)c(O)c4)C(=O)O)cc3)nc2)cc1` [Compound 601], for which the concentration for a half-maximal effect (EC50) was in the range of 800 to 2500 nM.

As to `CCCCCCCOc1ccc(-c2cnc(-c3ccc(C[C@H](NC(=O)c4ccc(C(C)(C)C)s4)C(=O)NC4CC(C(=O)O)C4)cc3)nc2)cc1` (some centres unmarked) [Compound 602], the EC50 is below 800 nM.

Turning to `CCCCCCCOc1ccc(-c2cnc(-c3ccc(C[C@H](NC(=O)c4ccc(C(C)(C)C)s4)C(=O)NC4CC(N)C4)cc3)nc2)cc1` (some centres unmarked) [Compound 603], the EC50 is 800 to 2500 nM.

With `CCCCCCCOc1ccc(-c2cnc(-c3ccc(C[C@H](NC(=O)c4ccc(C(C)(C)C)s4)C(=O)NC4(C(=O)O)CC4)cc3)nc2)cc1` [Compound 604], the 50% effective concentration (EC50) is 800 to 2500 nM.

Regarding `CCCCCCCOc1ccc(-c2cnc(-c3ccc(C[C@H](NC(=O)c4ccc(C(C)(C)C)s4)C(=O)NCC4(C(=O)OC)CCNCC4)cc3)nc2)cc1` [Compound 605], the half-maximal effective concentration (EC50) is below 800 nM.

`CCCCCCCOc1ccc(-c2cnc(-c3ccc(C[C@H](NC(=O)c4ccc(C(C)(C)C)s4)C(=O)NCC4(C(=O)O)CCNCC4)cc3)nc2)cc1` [Compound 606]: the 50% effective concentration (EC50) lay within 800 to 2500 nM.

For the compound `CCCCCCCOc1ccc(-c2cnc(-c3ccc(C[C@H](NC(=O)c4ccc(C(C)(C)C)s4)C(=O)N4CC(CC(=O)O)C4)cc3)nc2)cc1` [Compound 607], the 50% effective concentration (EC50) lay in the range of 800 to 2500 nM.

Consider `CCCCCCCOc1ccc(-c2cnc(-c3ccc(C[C@H](NC(=O)c4ccc(C(C)(C)C)s4)C(=O)NC4CCC(C(=O)O)C4)cc3)nc2)cc1` (some centres unmarked) [Compound 608], for which the concentration giving a half-maximal response (EC50) was in the range of 800 to 2500 nM.

For the compound `CCCCCCCOc1ccc(-c2cnc(-c3ccc(C[C@H](NC(=O)c4ccc(C(C)(C)C)s4)C(=O)NC(CCCC)C(=O)O)cc3)nc2)cc1` (some centres unmarked) [Compound 609], the half-maximal effective concentration (EC50) was below 800 nM.

Consider `CCCCCCCOc1ccc(-c2cnc(-c3ccc(C[C@H](NC(=O)c4ccc(C(C)(C)C)s4)C(=O)N4CC=CC4C(=O)O)cc3)nc2)cc1` (some centres unmarked) [Compound 610], for which the EC50 was below 800 nM.

What is called EC50 is the concentration that produces a half-maximal response.
